Experimental data published in US11458213B2, “Prostate-specific membrane antigen targeted high-affinity agents for endoradiotherapy of prostate cancer” (THE JOHNS HOPKINS UNIVERSITY, priority 2016, dated 2022).

Legend:
[1] = target: prostate-specific membrane antigen (PSMA) (Homo sapiens, UniProt Q04609); experiment: Binding affinities of the representative agents (PSMA)
[2] = LogP octanol/water; type: physicochemical
[3] = test system: PSMA-negative PC3 flu cells; experiment: Cell uptake in PSMA-negative PC3 flu cells; type: cell-based; conditions: 4 h incubation, n = 3
[4] = test system: PSMA+ PC3 PIP tumor; experiment: Treatment study (SPECT imaging and therapeutic effect) in tumor-bearing mice; type: in vivo
Experimental: A single dose of 3 mCi was injected via tail-vain injection in mice (n=10) bearing PSMA+ PC3 PIP tumor (size 3-5 mm). Saline was injected to another group of mice (n=10) for control study. Mice were monitored for body weight tumor size measure for two times per week. The control group of mice was euthanized after 4-8 weeks as the size of tumors over were >12 mm.

[5] = test system: PSMA+ PC3 PIP cells; experiment: Cell binding, uptake and internalization in PSMA+ PC3 PIP cells; type: cell-based; conditions: for Cell surface / Cell uptake PSMA + PC3 PIP / Internalization (cell lysate): 4 h incubation, n = 3; for uptake in PSMA+ PC3 cells (in words): compared to ^177Lu-3
[6] = test system: PSMA+ PC3 PIP tumor; experiment: In vivo tissue biodistribution; conditions: for tissue biodistribution PC-3 Flu: PC-3 Flu tumor; for tissue biodistribution PC-3 PIP: PC-3 PIP tumor
[7] = test system: PSMA+ PC3 PIP cells; experiment: Clonogenic assay in PSMA+ PC3 PIP cells; type: cell-based; conditions: 10 μCi dose
[8] = test system: PSMA-PC3 flu cells; experiment: Clonogenic assay in PSMA- PC3 flu cells; type: cell-based; conditions: 10 μCi dose

Chain of prostate-specific membrane antigen (PSMA) (Q04609 whole entry): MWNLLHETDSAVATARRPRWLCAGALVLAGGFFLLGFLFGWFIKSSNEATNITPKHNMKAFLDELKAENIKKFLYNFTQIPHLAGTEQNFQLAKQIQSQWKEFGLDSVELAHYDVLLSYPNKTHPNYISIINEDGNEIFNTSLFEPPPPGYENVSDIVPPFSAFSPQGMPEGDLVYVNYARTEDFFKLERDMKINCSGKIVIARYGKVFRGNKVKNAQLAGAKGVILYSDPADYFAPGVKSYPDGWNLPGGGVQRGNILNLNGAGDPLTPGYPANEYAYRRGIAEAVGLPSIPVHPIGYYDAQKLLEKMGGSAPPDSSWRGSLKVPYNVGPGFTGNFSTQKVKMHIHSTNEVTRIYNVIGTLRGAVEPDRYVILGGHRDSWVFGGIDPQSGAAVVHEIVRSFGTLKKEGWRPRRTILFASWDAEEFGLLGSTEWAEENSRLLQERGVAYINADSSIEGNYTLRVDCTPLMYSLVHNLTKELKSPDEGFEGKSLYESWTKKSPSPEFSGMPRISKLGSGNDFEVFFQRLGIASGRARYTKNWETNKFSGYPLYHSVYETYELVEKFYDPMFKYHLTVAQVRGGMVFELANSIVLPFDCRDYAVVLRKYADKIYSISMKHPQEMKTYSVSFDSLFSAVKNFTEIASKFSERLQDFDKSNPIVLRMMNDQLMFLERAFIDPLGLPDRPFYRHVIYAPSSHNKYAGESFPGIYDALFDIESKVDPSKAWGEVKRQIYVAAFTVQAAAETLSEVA

## O=C(O)CC[C@H](NC(=O)N[C@@H](CCCCN(Cc1ccc(Br)cc1)C(=O)CCCCNC(=S)Nc1ccc(CC2CN(CC(=O)O)CCN(CC(=O)O)CCN(CC(=O)O)CCN2CC(=O)O)cc1)C(=O)O)C(=O)O (stereo partly drawn) [Compound 1]
[1]
  IC50: 0.57 nM
  Ki: 1.15 nM
  binding affinity for PSMA (in words): higher binding affinity compared to 3
[2]
  LogPoct/water: −3.0

## O=C(O)CC[C@H](NC(=O)N[C@@H](CCCCN(Cc1ccc(Br)cc1)C(=O)CCCCNC(=O)CN1CCN(CC(=O)O)CCN(CC(=O)O)CCN(CC(=O)O)CC1)C(=O)O)C(=O)O [Compound 2]
[1]
  IC50: 0.64 nM
  Ki: 1.28 nM
  binding affinity for PSMA (in words): higher binding affinity compared to 3
[2]
  LogPoct/water: −3.53

## O=C(O)CC[C@H](NC(=O)N[C@@H](CCCCNC(=O)CCCCNC(=S)Nc1ccc(CC2CN(CC(=O)O)CCN(CC(=O)O)CCN(CC(=O)O)CCN2CC(=O)O)cc1)C(=O)O)C(=O)O (stereo partly drawn) [Compound 3]
[1]
  IC50: 2.16 nM
  Ki: 0.43 nM
[2]
  LogPoct/water: −3.2

## O=C([O-])CN1CCN(CC(=O)[O-])CCN(CC(=O)O)C(Cc2ccc(NC(=S)NCCCCC(=O)N(CCCC[C@H](NC(=O)N[C@@H](CCC(=O)O)C(=O)O)C(=O)O)Cc3ccc(Br)cc3)cc2)CN(CC(=O)[O-])CC1.[177Lu+3] (stereo partly drawn) [^177Lu-1]
[3]
  Cell uptake PSMA − PC3 flu: 0.09 percent incubated dose per one million cells
[4]; mouse, in vivo
  remission of PSMA+ PC3 tumor bearing mice: about 50%
[4]; single dose of 3 mCi
  body weight during treatment (in words): regained after 2 weeks
  survival of mice in complete remission: more than five months
  therapeutic efficacy compared to the control group using saline (in words): decrease in tumor volume
[4]; single dose of 3 mCi via tail vein, n=10
  mice showing complete eradication of tumors: 50%
[4]; single dose of 3 mCi, n=10
  number of mice with complete remission of the disease: Five
[5]
  internalized activity compared to ^177Lu-3: ~2 fold
  Cell surface: 27.68 percent incubated dose per one million cells
  Cell uptake PSMA + PC3 PIP: 42.60 percent incubated dose per one million cells
  Internalization (cell lysate): 15.88 percent incubated dose per one million cells
  uptake in PSMA+ PC3 cells (in words): higher uptake in PSMA+ PC3 cells compared to ^177Lu-3
[6]; 2 h
  tissue biodistribution Bladder: 3.39 ± 2.78 percent injected dose per gram
  tissue biodistribution Blood: 0.68 ± 0.25 percent injected dose per gram
  tissue biodistribution Fat: 0.35 ± 0.10 percent injected dose per gram
  tissue biodistribution Heart: 0.28 ± 0.08 percent injected dose per gram
  tissue biodistribution Kidney: 87.10 ± 25.99 percent injected dose per gram
  tissue biodistribution Liver: 0.39 ± 0.13 percent injected dose per gram
  tissue biodistribution Lung: 1.12 ± 0.33 percent injected dose per gram
  tissue biodistribution Muscle: 0.68 ± 0.98 percent injected dose per gram
  tissue biodistribution PC-3 Flu: 0.39 ± 0.03 percent injected dose per gram
  tissue biodistribution PC-3 PIP: 55.04 ± 7.23 percent injected dose per gram
  tissue biodistribution Pancreas: 0.28 ± 0.09 percent injected dose per gram
  tissue biodistribution Salivary gland (Sal. Gl): 1.09 ± 0.08 percent injected dose per gram
  tissue biodistribution Sm. Int.: 0.51 ± 0.32 percent injected dose per gram
  tissue biodistribution Spleen: 3.76 ± 0.70 percent injected dose per gram
  tissue biodistribution Stomach: 0.87 ± 0.63 percent injected dose per gram
[6]; 24 h
  tissue biodistribution Bladder: 0.31 ± 0.13 percent injected dose per gram
  tissue biodistribution Blood: 0.01 ± 0.01 percent injected dose per gram
  tissue biodistribution Fat: 0.08 ± 0.15 percent injected dose per gram
  tissue biodistribution Heart: 0.02 ± 0.05 percent injected dose per gram
  tissue biodistribution Kidney: 1.65 ± 0.30 percent injected dose per gram
  tissue biodistribution Liver: 0.11 ± 0.01 percent injected dose per gram
  tissue biodistribution Lung: 0.06 ± 0.01 percent injected dose per gram
  tissue biodistribution Muscle: 0.01 ± 0.00 percent injected dose per gram
  tissue biodistribution PC-3 Flu: 0.10 ± 0.02 percent injected dose per gram
  tissue biodistribution PC-3 PIP: 40.61 ± 7.00 percent injected dose per gram
  tissue biodistribution Pancreas: 0.02 ± 0.00 percent injected dose per gram
  tissue biodistribution Salivary gland (Sal. Gl): 0.09 ± 0.02 percent injected dose per gram
  tissue biodistribution Sm. Int.: 0.03 ± 0.01 percent injected dose per gram
  tissue biodistribution Spleen: 0.15 ± 0.05 percent injected dose per gram
  tissue biodistribution Stomach: 0.04 ± 0.01 percent injected dose per gram
[6]; 48 h
  tissue biodistribution Bladder: 0.12 ± 0.07 percent injected dose per gram
  tissue biodistribution Blood: 0.00 ± 0.01 percent injected dose per gram
  tissue biodistribution Fat: 0.01 ± 0.01 percent injected dose per gram
  tissue biodistribution Heart: 0.01 ± 0.00 percent injected dose per gram
  tissue biodistribution Kidney: 1.02 ± 0.58 percent injected dose per gram
  tissue biodistribution Liver: 0.09 ± 0.02 percent injected dose per gram
  tissue biodistribution Lung: 0.04 ± 0.01 percent injected dose per gram
  tissue biodistribution Muscle: 0.00 ± 0.00 percent injected dose per gram
  tissue biodistribution PC-3 Flu: 0.05 ± 0.01 percent injected dose per gram
  tissue biodistribution PC-3 PIP: 27.00 ± 7.03 percent injected dose per gram
  tissue biodistribution Pancreas: 0.01 ± 0.01 percent injected dose per gram
  tissue biodistribution Salivary gland (Sal. Gl): 0.05 ± 0.03 percent injected dose per gram
  tissue biodistribution Sm. Int.: 0.02 ± 0.00 percent injected dose per gram
  tissue biodistribution Spleen: 0.08 ± 0.03 percent injected dose per gram
  tissue biodistribution Stomach: 0.05 ± 0.04 percent injected dose per gram
[6]; 72 h
  tissue biodistribution Bladder: 0.06 ± 0.03 percent injected dose per gram
  tissue biodistribution Blood: 0.00 ± 0.04 percent injected dose per gram
  tissue biodistribution Fat: 0.06 ± 0.07 percent injected dose per gram
  tissue biodistribution Heart: 0.01 ± 0.00 percent injected dose per gram
  tissue biodistribution Kidney: 0.62 ± 0.04 percent injected dose per gram
  tissue biodistribution Liver: 0.07 ± 0.00 percent injected dose per gram
  tissue biodistribution Lung: 0.04 ± 0.02 percent injected dose per gram
  tissue biodistribution Muscle: 0.02 ± 0.02 percent injected dose per gram
  tissue biodistribution PC-3 Flu: 0.06 ± 0.01 percent injected dose per gram
  tissue biodistribution PC-3 PIP: 24.90 ± 2.27 percent injected dose per gram
  tissue biodistribution Pancreas: 0.01 ± 0.00 percent injected dose per gram
  tissue biodistribution Salivary gland (Sal. Gl): 0.05 ± 0.02 percent injected dose per gram
  tissue biodistribution Sm. Int.: 0.02 ± 0.01 percent injected dose per gram
  tissue biodistribution Spleen: 0.08 ± 0.02 percent injected dose per gram
  tissue biodistribution Stomach: 0.04 ± 0.00 percent injected dose per gram
[6]; mouse, in vivo
  uptake in PSMA+ PC3 PIP tumor (in words): higher uptake and retention in PSMA+ PC3 PIP tumor uptake than ^177Lu-2
[7]
  cell killing efficacy: about 100%
[8]
  toxicity for PSMA-PC3 flu cells (in words): no significant toxicity

## O=C([O-])CN1CCN(CC(=O)[O-])CCN(CC(=O)NCCCCC(=O)N(CCCC[C@H](NC(=O)N[C@@H](CCC(=O)O)C(=O)O)C(=O)O)Cc2ccc(Br)cc2)CCN(CC(=O)[O-])CC1.[177Lu+3] [^177Lu-2]
[3]
  Cell uptake PSMA − PC3 flu: 0.12 percent incubated dose per one million cells
[5]
  Cell uptake PSMA + PC3 PIP: 40.6 percent incubated dose per one million cells
  uptake in PSMA+ PC3 cells (in words): higher uptake in PSMA+ PC3 cells compared to ^177Lu-3

## O=C([O-])CN1CCN(CC(=O)[O-])CCN(CC(=O)O)C(Cc2ccc(NC(=S)NCCCCC(=O)NCCCC[C@H](NC(=O)N[C@@H](CCC(=O)O)C(=O)O)C(=O)O)cc2)CN(CC(=O)[O-])CC1.[177Lu+3] (stereo partly drawn) [^177Lu-3]
[3]
  Cell uptake PSMA − PC3 flu: 0.05 percent incubated dose per one million cells
[5]
  Cell surface: 12.50 percent incubated dose per one million cells
  Cell uptake PSMA + PC3 PIP: 24.50 percent incubated dose per one million cells
  Internalization (cell lysate): 8.75 percent incubated dose per one million cells
